Compound: CC1(C)CNc2cc(NC(=O)c3cccnc3NCc3ccncc3)ccc21 [Motesanib] + CC(=O)Nc1cccc(-n2c(=O)n(C3CC3)c(=O)c3c(Nc4ccc(I)cc4F)n(C)c(=O)c(C)c32)c1 [Trametinib] (partner 0.02 µM)
Assay: relative viability (nuclei count vs DMSO), 5 days (fraction); higher = more cells survive
Settings: first compound 0.01 µM
In short: (§1)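 Lung cancer cell lines in 1536-well plates were dosed by pin tool the day after seeding, either with one drug alone or with a fixed anchor-drug dose plus five library-drug doses (not always all listed) in √10 steps. After 5 days, cells were fixed and their nuclei stained in one step (final 0.05% Triton X-100, 1% formaldehyde, 1 ug/ml Hoechst), then counted on 4× images. Relative viability is the nuclei count in treated wells divided by that in vehicle wells. Values are medians of duplicate plates.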

Cell Line | relative viability
NCI-H1755 | 0.782
NCI-H2023 | 0.666
HCC-15 | 0.377
PC-14 | 0.809
EKVX | 0.303
LC-2-ad | 0.9
NCI-H1975 | 0.335
RERF-LC-KJ | 0.88

Same assay, conditions: first compound 0.03162 µM

Cell Line | relative viability
LU99A | 0.596
BEN | 1.01
HARA | 0.454
HCC-78 | 0.671
NCI-H322M | 0.558
LCLC-97TM1 | 0.202
NCI-H2009 | 0.316
A-427 | 0.702
NCI-H441 | 0.435
NCI-H661 | 0.547
NCI-H1734 | 0.625
NCI-H460 | 0.104
NCI-H2347 | 0.3
SK-LU-1 | 0.591
201T | 0.71
NCI-H1915 | 0.338
HCC-827 | 0.593

Cell Line | relative viability
LXF-289 | 0.684
NCI-H23 | 0.341
NCI-H647 | 0.533
NCI-H1651 | 0.796
EPLC-272H | 0.289
NCI-H1792 | 0.37
NCI-H1355 | 0.473
NCI-H3122 | 0.227
NCI-H1437 | 0.471
NCI-H1755 | 0.765
NCI-H2023 | 0.339
HCC-15 | 0.335
PC-14 | 0.8
EKVX | 0.414
LC-2-ad | 0.903
NCI-H1975 | 0.359
RERF-LC-KJ | 0.875

Same assay, conditions: first compound 0.1 µM

Cell Line | relative viability
LU99A | 0.548
BEN | 0.983
HARA | 0.598
HCC-78 | 0.701
NCI-H322M | 0.554
LCLC-97TM1 | 0.198
NCI-H2009 | 0.273
A-427 | 0.774
NCI-H441 | 0.463
NCI-H661 | 0.606
NCI-H1734 | 0.644
NCI-H460 | 0.209
NCI-H2347 | 0.292
SK-LU-1 | 0.476
201T | 0.736
NCI-H1915 | 0.318
HCC-827 | 0.505

Cell Line | relative viability
LXF-289 | 0.689
NCI-H23 | 0.37
NCI-H647 | 0.42
NCI-H1651 | 0.777
EPLC-272H | 0.286
NCI-H1792 | 0.43
NCI-H1355 | 0.463
NCI-H3122 | 0.229
NCI-H1437 | 0.529
NCI-H1755 | 0.799
NCI-H2023 | 0.574
HCC-15 | 0.364
PC-14 | 0.817
EKVX | 0.344
LC-2-ad | 0.865
NCI-H1975 | 0.316
RERF-LC-KJ | 0.805

Same assay, conditions: first compound 0.3162 µM

Cell Line | relative viability
LU99A | 0.539
BEN | 1.01
HARA | 0.918
NCI-H322M | 0.527
LCLC-97TM1 | 0.226
NCI-H2009 | 0.291
A-427 | 0.775
NCI-H441 | 0.577
NCI-H661 | 0.547
NCI-H1734 | 0.676
NCI-H460 | 0.179
NCI-H2347 | 0.245
SK-LU-1 | 0.536
201T | 0.722
NCI-H1915 | 0.288
HCC-827 | 0.541
LXF-289 | 0.728

Cell Line | relative viability
NCI-H23 | 0.432
NCI-H647 | 0.427
NCI-H1651 | 0.849
EPLC-272H | 0.299
NCI-H1792 | 0.528
NCI-H1355 | 0.4
NCI-H3122 | 0.211
NCI-H1437 | 0.492
NCI-H1755 | 0.85
NCI-H2023 | 0.589
HCC-15 | 0.406
PC-14 | 0.79
EKVX | 0.459
LC-2-ad | 0.871
NCI-H1975 | 0.38
RERF-LC-KJ | 0.845

Same assay, conditions: first compound 1 µM

Cell Line | relative viability
LU99A | 0.583
BEN | 1.1
HARA | 0.441
HCC-78 | 0.735
NCI-H322M | 0.545
LCLC-97TM1 | 0.195
NCI-H2009 | 0.289
A-427 | 0.762
NCI-H441 | 0.472
NCI-H661 | 0.571
NCI-H1734 | 0.723
NCI-H460 | 0.142
NCI-H2347 | 0.278
SK-LU-1 | 0.544
201T | 0.742
NCI-H1915 | 0.365
HCC-827 | 0.623

Cell Line | relative viability
LXF-289 | 0.704
NCI-H23 | 0.382
NCI-H647 | 0.491
NCI-H1651 | 0.847
EPLC-272H | 0.341
NCI-H1792 | 0.442
NCI-H1355 | 0.459
NCI-H3122 | 0.197
NCI-H1437 | 0.518
NCI-H1755 | 0.831
NCI-H2023 | 0.569
HCC-15 | 0.376
PC-14 | 0.93
EKVX | 0.522
LC-2-ad | 0.84
NCI-H1975 | 0.339
RERF-LC-KJ | 0.909

Compound: CC1(C)CNc2cc(NC(=O)c3cccnc3NCc3ccncc3)ccc21 [Motesanib] + CC(C)C[C@H](NC(=O)[C@H](Cc1ccccc1)NC(=O)c1cnccn1)B(O)O [Bortezomib] (partner 0.002 µM)
Assay: as above
Settings: first compound 0.01 µM
In short: as §1

Cell Line | relative viability
LU99A | 1.12
BEN | 0.696
HARA | 1.06
HCC-78 | 0.44
NCI-H322M | 1.32
LCLC-97TM1 | 0.497
NCI-H2009 | 1.07
A-427 | 1.03
NCI-H441 | 0.542
NCI-H661 | 0.795
NCI-H1734 | 1
NCI-H460 | 1.09
NCI-H2347 | 1.08
SK-LU-1 | 1.11
201T | 1.05
NCI-H1915 | 0.959
HCC-827 | 0.962
